The experiment has as its target T1, PLK1 (Homo sapiens, UniProt P53350).
T1 construct: Full-length, active GST-PLK1 is purified from Sf9 insect cells; made in house; host or cells: Sf9 insect cells
In words: Biochemical Characterization Assay: HTRF kinase assay, GST-PLK1 phosphorylation of GST-p53. The conditions noted are these: GST-PLK1, GST-p53 substrate. In outline: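 HTRF read-out of p53 phosphorylation: after EDTA stop, anti-phospho-p53 antibody bound 30 min at 37 °C in HEPES pH 7 buffer, with Eu-anti-rabbit/APC-anti-GST detection. Kinase step used full-length Sf9-expressed GST-PLK1 (3 ug/mL) and E. coli GST-p53 substrate, 35 min at 37 °C.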

The structures appear in SMILES notation.

T1 sequence (P53350 whole entry): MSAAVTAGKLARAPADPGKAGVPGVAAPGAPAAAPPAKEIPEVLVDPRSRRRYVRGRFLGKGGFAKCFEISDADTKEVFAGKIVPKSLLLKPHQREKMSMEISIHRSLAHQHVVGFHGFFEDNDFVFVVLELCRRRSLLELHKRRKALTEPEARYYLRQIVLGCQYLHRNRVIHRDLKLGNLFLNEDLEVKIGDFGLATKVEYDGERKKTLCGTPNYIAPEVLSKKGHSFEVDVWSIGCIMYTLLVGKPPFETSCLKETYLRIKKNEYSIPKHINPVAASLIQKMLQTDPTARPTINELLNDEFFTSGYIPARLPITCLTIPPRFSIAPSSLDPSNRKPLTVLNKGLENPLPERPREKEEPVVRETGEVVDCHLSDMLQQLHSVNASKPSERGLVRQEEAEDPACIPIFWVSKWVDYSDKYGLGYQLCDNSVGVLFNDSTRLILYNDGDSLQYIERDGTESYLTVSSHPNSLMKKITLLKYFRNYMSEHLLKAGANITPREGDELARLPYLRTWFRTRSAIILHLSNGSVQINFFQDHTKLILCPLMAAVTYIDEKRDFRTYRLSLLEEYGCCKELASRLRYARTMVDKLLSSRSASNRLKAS

In the case of `COc1cc(C(=O)NCCCN2CCN(C(=O)OC(C)(C)C)CC2)ccc1Nc1ncc2c(n1)N(C1CCCC1)CC(F)(F)C(=O)N2C` [Example I-94, 4-{3-[4-(9-cyclopentyl-7,7-difluoro-5-methyl-6-oxo-6,7,8,9-tetrahydro-5H-pyrimido[4,5-b][1,4]diazepin-2-ylamino)-3-methoxy-benzoylamino]-propyl}-piperazine-1-carboxylic acid tert-butyl ester], under “ATP”, the IC50 lay within 0.001 to 0.05 µM.
`CN(C)CCCNC(=O)c1ccc(Nc2ncc3c(n2)N(C2CCCCC2)CC(F)(F)C(=O)N3C)cc1` [Example I-265, 4-(9-cyclohexyl-7,7-difluoro-5-methyl-6-oxo-6,7,8,9-tetrahydro-5H-pyrimido[4,5-b][1,4]diazepin-2-ylamino)-N-(3-dimethylamino-propyl)-benzamide] returned an IC50 of 0.001 to 0.05 µM.
The compound `CCOCCNC(=O)c1ccc(Nc2ncc3c(n2)N(C2CCCC2)CC(F)(F)C(=O)N3C)c(OC)c1` [Example I-40, 4-(9-cyclopentyl-7,7-difluoro-5-methyl-6-oxo-6,7,8,9-tetrahydro-5H-pyrimido[4,5-b][1,4]diazepin-2-ylamino)-N-(2-ethoxy-ethyl)-3-methoxy-benzamide] showed an IC50 (ATP) of 0.001 to 0.05 µM.
Regarding `COc1cc(C(=O)NC(C)c2ccccc2)ccc1Nc1ncc2c(n1)N(C1CCCC1)CC(F)(F)C(=O)N2C` (racemic) [Example I-37, rac-4-(9-cyclopentyl-7,7-difluoro-5-methyl-6-oxo-6,7,8,9-tetrahydro-5H-pyrimido[4,5-b][1,4]diazepin-2-ylamino)-3-methoxy-N-(1-phenyl-ethyl)-benzamide], the half-maximal inhibitory concentration (IC50) (ATP) is 0.051 to 0.5 µM.
As to `CCN1CCC(NC(=O)c2ccc(Nc3ncc4c(n3)N(C3CCCCC3)CC(F)(F)C(=O)N4C)cc2)CC1` [Example I-261, 4-(9-cyclohexyl-7,7-difluoro-5-methyl-6-oxo-6,7,8,9-tetrahydro-5H-pyrimido[4,5-b][1,4]diazepin-2-ylamino)-N-(1-ethyl-piperidin-4-yl)-benzamide], the IC50 is 0.001 to 0.05 µM.
The same measure, in the same setting: the result for `CNC(=O)c1cc(F)c(Nc2ncc3c(n2)N(C2CCCC2)CC(F)(F)C(=O)N3C)cc1F` [Example I-238, 4-(9-cyclopentyl-7,7-difluoro-5-methyl-6-oxo-6,7,8,9-tetrahydro-5H-pyrimido[4,5-b][1,4]diazepin-2-ylamino)-2,5-difluoro-N-methyl-benzamide] reads 0.001 to 0.05 µM.
In turn, `COc1cc(C(=O)NCCN(C)C)ccc1Nc1ncc2c(n1)N(C1CCCC1)CC(F)(F)C(=O)N2C` [Example I-52, 4-(9-cyclopentyl-7,7-difluoro-5-methyl-6-oxo-6,7,8,9-tetrahydro-5H-pyrimido[4,5-b][1,4]diazepin-2-ylamino)-N-(2-dimethylamino-ethyl)-3-methoxy-benzamide] gave an IC50 (ATP) of 0.001 to 0.05 µM.
For the compound `COc1cc(C(=O)NC2CCOCC2)ccc1Nc1ncc2c(n1)N(CCc1cccs1)CC(F)(F)C(=O)N2C` [Example I-274, 4-[7,7-difluoro-5-methyl-6-oxo-9-(2-thiophen-2-yl-ethyl)-6,7,8,9-tetrahydro-5H-pyrimido[4,5-b][1,4]diazepin-2-ylamino]-3-methoxy-N-(tetrahydro-pyran-4-yl)-benzamide], the IC50 lay within 0.051 to 0.5 µM.
For `COc1cc(C(=O)NC2CCN(C(=O)OC(C)(C)C)CC2)ccc1Nc1ncc2c(n1)N(C1CCCC1)CC(F)(F)C(=O)N2C` [Example I-71, 4-[4-(9-cyclopentyl-7,7-difluoro-5-methyl-6-oxo-6,7,8,9-tetrahydro-5H-pyrimido[4,5-b][1,4]diazepin-2-ylamino)-3-methoxy-benzoylamino]-piperidine-1-carboxylic acid tert-butyl ester], under “ATP”, the IC50 was 0.051 to 0.5 µM.
`COc1cc(C(=O)N(C)C)ccc1Nc1ncc2c(n1)N(C1CCCC1)CC(F)(F)C(=O)N2C` [Example I-125, 4-(9-cyclopentyl-7,7-difluoro-5-methyl-6-oxo-6,7,8,9-tetrahydro-5H-pyrimido[4,5-b][1,4]diazepin-2-ylamino)-3-methoxy-N,N-dimethyl-benzamide]: the IC50 (ATP) lay within 0.001 to 0.05 µM.
Still for that read-out and setting: in the case of `COc1cc(C(=O)NC2CCN(CC(F)(F)F)CC2)ccc1Nc1ncc2c(n1)N(C1CCCC1)CC(F)(F)C(=O)N2C` [Example I-77, 4-(9-cyclopentyl-7,7-difluoro-5-methyl-6-oxo-6,7,8,9-tetrahydro-5H-pyrimido[4,5-b][1,4]diazepin-2-ylamino)-3-methoxy-N-[1-(2,2,2-trifluoro-ethyl)-piperidin-4-yl]-benzamide] it was 0.001 to 0.05 µM; in that of `COc1cc(C(=O)N[C@@H]2CCNC[C@@H]2OC)ccc1Nc1ncc2c(n1)N(C1CCCC1)CC(F)(F)C(=O)N2C` (racemic) [Example I-57, rac-(3S,4R)-4-(9-cyclopentyl-7,7-difluoro-5-methyl-6-oxo-6,7,8,9-tetrahydro-5H-pyrimido[4,5-b][1,4]diazepin-2-ylamino)-3-methoxy-N-(3-methoxy-piperidin-4-yl)-benzamide], 0.001 to 0.05 µM.
For the compound `COc1cc(C(=O)NCCCN(C)C)ccc1Nc1ncc2c(n1)N(CCc1ccccc1)CC(F)(F)C(=O)N2C` [Example I-279, 4-(7,7-difluoro-5-methyl-6-oxo-9-phenethyl-6,7,8,9-tetrahydro-5H-pyrimido[4,5-b][1,4]diazepin-2-ylamino)-N-(3-dimethylamino-propyl)-3-methoxy-benzamide], the IC50 is 0.051 to 0.5 µM.
For `CN1CCC(NC(=O)c2ccc(Nc3ncc4c(n3)N(C3CCCC3)CC(F)(F)C(=O)N4C)c(OC(F)(F)F)c2)CC1` [Example I-181, 4-(9-cyclopentyl-7,7-difluoro-5-methyl-6-oxo-6,7,8,9-tetrahydro-5H-pyrimido[4,5-b][1,4]diazepin-2-ylamino)-N-(1-methyl-piperidin-4-yl)-3-trifluoromethoxy-benzamide], the IC50 was 0.001 to 0.05 µM.
Same read-out and setting: the result for `CN(C)CCNC(=O)c1ccc(Nc2ncc3c(n2)N(C2CCCC2)CC(F)(F)C(=O)N3C)c(F)c1` [Example I-226, 4-(9-cyclopentyl-7,7-difluoro-5-methyl-6-oxo-6,7,8,9-tetrahydro-5H-pyrimido[4,5-b][1,4]diazepin-2-ylamino)-N-(2-dimethylamino-ethyl)-3-fluoro-benzamide] reads 0.001 to 0.05 µM.
Where the note is “ATP”, `COc1cc(C(=O)N[C@@H]2CCN(C(=O)OC(C)(C)C)C2)ccc1Nc1ncc2c(n1)N(C1CCCC1)CC(F)(F)C(=O)N2C` [Example I-81, R-3-[4-(9-cyclopentyl-7,7-difluoro-5-methyl-6-oxo-6,7,8,9-tetrahydro-5H-pyrimido[4,5-b][1,4]diazepin-2-ylamino)-3-methoxy-benzoylamino]-pyrrolidine-1-carboxylic acid tert-butyl ester] showed an IC50 of 0.051 to 0.5 µM.
`COc1cc(C(=O)NCCN2CCN(C)CC2)ccc1Nc1ncc2c(n1)N(C1CCCC1)CC(F)(F)C(=O)N2C` [Example I-47, 4-(9-cyclopentyl-7,7-difluoro-5-methyl-6-oxo-6,7,8,9-tetrahydro-5H-pyrimido[4,5-b][1,4]diazepin-2-ylamino)-3-methoxy-N-[2-(4-methyl-piperazin-1-yl)-ethyl]-benzamide] registered an IC50 (ATP) of 0.001 to 0.05 µM.
As to `CCc1cc(C(=O)NC)ccc1Nc1ncc2c(n1)N(C1CCCC1)CC(F)(F)C(=O)N2C` [Example I-200, 4-(9-cyclopentyl-7,7-difluoro-5-methyl-6-oxo-6,7,8,9-tetrahydro-5H-pyrimido[4,5-b][1,4]diazepin-2-ylamino)-3-ethyl-N-methyl-benzamide], the IC50 fell in the range of 0.001 to 0.05 µM.
Same read-out and setting: in the case of `CN1C(=O)C(F)(F)CN(C2CCCC2)c2nc(Nc3ccc(C(N)=O)cc3F)ncc21` [Example I-231, 4-(9-cyclopentyl-7,7-difluoro-5-methyl-6-oxo-6,7,8,9-tetrahydro-5H-pyrimido[4,5-b][1,4]diazepin-2-ylamino)-3-fluoro-benzamide] it was 0.001 to 0.05 µM; in that of `CCc1cc(C(=O)NC2CCN(CC)CC2)ccc1Nc1ncc2c(n1)N(C1CCCC1)CC(F)(F)C(=O)N2C` [Example I-196, 4-(9-cyclopentyl-7,7-difluoro-5-methyl-6-oxo-6,7,8,9-tetrahydro-5H-pyrimido[4,5-b][1,4]diazepin-2-ylamino)-3-ethyl-N-(1-ethyl-piperidin-4-yl)-benzamide], 0.001 to 0.05 µM; in that of `Cc1cc(C(=O)NC2CCN(C(=O)OC(C)(C)C)CC2)ccc1Nc1ncc2c(n1)N(C1CCCC1)CC(F)(F)C(=O)N2C` [Example I-191, 4-[4-(9-cyclopentyl-7,7-difluoro-5-methyl-6-oxo-6,7,8,9-tetrahydro-5H-pyrimido[4,5-b][1,4]diazepin-2-ylamino)-3-methyl-benzoylamino]-piperidine-1-carboxylic acid tert-butyl ester], 0.001 to 0.05 µM.
`CNC(=O)c1ccc(Nc2ncc3c(n2)N(C2CCCCC2)CC(F)(F)C(=O)N3C)cc1` [Example I-258, 4-(9-cyclohexyl-7,7-difluoro-5-methyl-6-oxo-6,7,8,9-tetrahydro-5H-pyrimido[4,5-b][1,4]diazepin-2-ylamino)-N-methyl-benzamide] came in with an IC50 of 0.001 to 0.05 µM.
`COc1cc(C(=O)N2CCN(C)CC2)ccc1Nc1ncc2c(n1)N(C1CCCC1)CC(F)(F)C(=O)N2C` [Example I-128, 9-cyclopentyl-7,7-difluoro-2-[2-methoxy-4-(4-methyl-piperazine-1-carbonyl)-phenylamino]-5-methyl-5,7,8,9-tetrahydro-pyrimido[4,5-b][1,4]diazepin-6-one] displayed an IC50 (ATP) of 0.001 to 0.05 µM.
In turn, `COc1cc(C(=O)O)ccc1Nc1ncc2c(n1)N(CCCc1ccccc1)CC(F)(F)C(=O)N2C` [Example I-281, 4-[7,7-difluoro-5-methyl-6-oxo-9-(3-phenyl-propyl)-6,7,8,9-tetrahydro-5H-pyrimido[4,5-b][1,4]diazepin-2-ylamino]-3-methoxy-benzoic acid] registered an IC50 of 0.051 to 0.5 µM.
Compound `CCN(CC)CCCNC(=O)c1ccc(Nc2ncc3c(n2)N(C2CCCC2)CC(F)(F)C(=O)N3C)c(OC)c1` [Example I-123, 4-(9-cyclopentyl-7,7-difluoro-5-methyl-6-oxo-6,7,8,9-tetrahydro-5H-pyrimido[4,5-b][1,4]diazepin-2-ylamino)-N-(3-diethylamino-propyl)-3-methoxy-benzamide] returned an IC50 (ATP) of 0.001 to 0.05 µM.

For orientation: IC50 means the concentration at which inhibition is half-maximal.

The record behind these values is US8003785B2 (Takeda Pharmaceutical Company Limited, priority 2008, dated 2011).
